Results taken from patent US7560571B2, “Substituted pyrroles and imidazoles, compositions containing same, manufacturing process therefor and use thereof” (Aventis Pharma S.A., priority 2005, dated 2009).
pIC50: −log10 of the molar value.

Key:
human FAK = target: T1, human FAK (Homo sapiens, UniProt Q05397); experiment: FAK autophosphorylation inhibition, time-resolved fluorescence test (HTRF); type: biochemical; details: autophosphorylation of the enzyme, 15 μM ATP, 1 hour at 37° C.; read-out: FAK IC 50
T1 construct: The whole cDNA of human FAK, the N-terminal end of which has been labelled with histidine; made in house; host or cells: baculovirus expression system (pFastBac HTc)
Method: The inhibitory activity of the compounds on FAK is determined by measuring the inhibition of autophosphorylation of the enzyme using a time-resolved fluorescence test (HTRF).
The whole cDNA of human FAK, the N-terminal end of which has been labelled with histidine, was cloned in a pFastBac HTc baculovirus expression vector. The protein was expressed and purified to about 70% homogeneity.
The kinase activity is determined by incubating the enzyme (6.6 μg/mL) with different concentrations of test compound in a 50 mM Hepes pH=7.2, 10 mM MgCl2, 100 μm Na3VO4, 15 μM ATP buffer for 1 hour at 37° C. The enzymatic reaction is stopped by adding Hepes pH=7.0 buffer containing 0.4 mM KF, 133 mM EDTA, 0.1% BSA and the labelling is performed, for 1 to 2 hours at room temperature, by adding to this buffer an anti-Histidine antibody labelled with XL665 and a tyrosine phosphospecific monoclonal antibody conjugated to europium cryptate (Eu-K). […] The long-lasting signal specific for XL-665 is measured in a Packard Discovery plate counter. All the tests are performed in duplicate and the average of the two tests is calculated. The inhibition of the autophosphorylation activity of FAK with compounds of the invention is expressed as a percentage of inhibition relative to a control whose activity is measured in the absence of test compound. […]

human KDR enzyme = target: T2, human KDR enzyme (Homo sapiens, UniProt P35968); experiment: KDR substrate phosphorylation inhibition, scintillation technique; type: biochemical; details: GST-KDR cytoplasmic domain, PLCγ substrate, 1 hour at 37° C.; read-out: KDR IC 50
T2 construct: The cytoplasmic domain of the human KDR enzyme was cloned in the form of a GST fusion; GST; made in house; host or cells: SF21 insect cells (baculovirus)
Method: The inhibitory effect of the compounds is determined in an in vitro test of phosphorylation of substrate with the enzyme KDR via a scintillation technique (96-well plate, NEN).
The cytoplasmic domain of the human KDR enzyme was cloned in the form of a GST fusion in the pFastBac baculovirus expression vector. The protein was expressed in the SF21 cells and purified to about 60% homogeneity.
The KDR kinase activity is measured in 20 mM MOPS, 10 mM MgCl2, 10 mM MnCl2, 1 mM DTT, 2.5 mM EGTA, 10 mM b-glycerophosphate, pH=7.2, in the presence of 10 mM MgCl2, 100 μm Na3VO4, 1 mM NaF. 10 μl of the compound are added to 70 μL of kinase buffer containing 100 ng of KDR enzyme at 4° C. The reaction is initiated by adding 20 μL of solution containing 2 μg of substrate (SH2-SH3 fragment of PLCγ expressed in the form of a GST fusion protein), 2 μCi of γ^33P[ATP] and 2 μm of cold ATP. After incubation for 1 hour at 37° C., the reaction is stopped by adding 1 volume (100 μl) of 200 mM EDTA. The incubation buffer is removed, and the wells are washed three times with 300 μL of PBS. The radioactivity in each well is measured using a Top Count NXT radioactivity counter (Packard).
The background is determined by measuring the radioactivity in four different wells containing radioactive ATP and the substrate alone.
A total activity control is measured in four different wells containing all the reagents (γ^33P-[ATP], KDR and substrate PLCγ), but in the absence of compound.
The inhibition of the KDR activity with the compound of the invention is expressed as a percentage of inhibition of the control activity determined in the absence of compound.
Compound SU5614 (Calbiochem) (1 μm) is included in each plate as an inhibition control.

human Tie2 = target: T3, human Tie2 (Homo sapiens, UniProt Q02763); experiment: Tie2 phosphorylation of PLC inhibition, FlashPlate radioactivity; type: biochemical; details: GST-Tie2, GST-PLC substrate, one hour at 37° C.; read-out: TIE2 IC 50
T3 construct: amino acids of the intracellular domain 776-1124; made in house; host or cells: baculovirus expression system (pFastBacGT)
Method: The coding sequence of human Tie2 corresponding to the amino acids of the intracellular domain 776-1124 was generated by PCR using the cDNA isolated from a human placenta as a model. This sequence was introduced into a pFastBacGT baculovirus expression vector in the form of a GST fusion protein.
The inhibitory effect of the molecules is determined in a test of phosphorylation of PLC with Tie2 in the presence of GST-Tie2 purified to about 80% homogeneity. The substrate is composed of the SH2-SH3 fragments of PLC expressed in the form of a GST fusion protein.
The kinase activity of Tie2 is measured in a MOPS 20 mM pH 7.2 buffer, containing 10 mM MgCl2, 10 mM MnCl2, 1 mM DTT, 10 mM of glycerophosphate. In a 96-well FlashPlate plate maintained on ice, a reaction mixture is deposited, composed of 70 μL of kinase buffer containing 100 ng of enzyme GST-Tie2 per well. Next, 10 μL of the test molecule diluted in DMSO to a maximum concentration of 10% are added. For a given concentration, each measurement is performed four times. The reaction is initiated by adding 20 μL of solution containing 2 μg of GST-PLC, 2 μm of cold ATP and 1 μCi of ^33P[ATP]. After incubation for one hour at 37° C., the reaction is stopped by adding 1 volume (100 μl) of EDTA 200 mM. After removal of the incubation buffer, the wells are washed three times with 300 μL of PBS. The radioactivity is measured on a MicroBeta1450 Wallac.
The inhibition of the Tie2 activity is calculated and expressed as a percentage of inhibition relative to the control activity determined in the absence of compound.

T2 sequence (P35968 786-1356 limits assumed): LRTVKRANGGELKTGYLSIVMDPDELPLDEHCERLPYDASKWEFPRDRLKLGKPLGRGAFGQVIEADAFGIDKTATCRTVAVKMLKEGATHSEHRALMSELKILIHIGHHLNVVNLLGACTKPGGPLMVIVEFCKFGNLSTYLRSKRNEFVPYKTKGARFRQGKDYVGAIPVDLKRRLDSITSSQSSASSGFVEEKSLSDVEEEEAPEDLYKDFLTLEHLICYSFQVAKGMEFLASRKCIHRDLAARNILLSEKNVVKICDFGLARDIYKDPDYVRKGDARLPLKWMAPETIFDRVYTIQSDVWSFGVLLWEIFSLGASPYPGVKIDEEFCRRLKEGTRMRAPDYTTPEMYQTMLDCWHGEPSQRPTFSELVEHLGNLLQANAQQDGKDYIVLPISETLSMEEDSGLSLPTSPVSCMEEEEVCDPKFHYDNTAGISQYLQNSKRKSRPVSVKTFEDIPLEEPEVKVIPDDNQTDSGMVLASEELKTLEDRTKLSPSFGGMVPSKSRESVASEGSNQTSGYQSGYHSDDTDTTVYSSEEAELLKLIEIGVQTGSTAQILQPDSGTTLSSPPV
T3 sequence (Q02763 776-1124): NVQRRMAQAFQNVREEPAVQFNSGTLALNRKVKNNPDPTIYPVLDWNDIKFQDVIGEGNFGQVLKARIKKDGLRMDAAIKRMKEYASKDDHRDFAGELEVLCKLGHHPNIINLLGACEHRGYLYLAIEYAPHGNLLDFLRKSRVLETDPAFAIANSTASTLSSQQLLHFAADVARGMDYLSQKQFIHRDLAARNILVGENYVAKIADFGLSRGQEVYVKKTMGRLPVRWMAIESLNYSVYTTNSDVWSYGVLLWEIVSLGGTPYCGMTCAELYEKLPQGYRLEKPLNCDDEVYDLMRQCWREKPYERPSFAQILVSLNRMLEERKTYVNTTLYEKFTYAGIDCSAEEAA
T1 sequence (Q05397 whole entry): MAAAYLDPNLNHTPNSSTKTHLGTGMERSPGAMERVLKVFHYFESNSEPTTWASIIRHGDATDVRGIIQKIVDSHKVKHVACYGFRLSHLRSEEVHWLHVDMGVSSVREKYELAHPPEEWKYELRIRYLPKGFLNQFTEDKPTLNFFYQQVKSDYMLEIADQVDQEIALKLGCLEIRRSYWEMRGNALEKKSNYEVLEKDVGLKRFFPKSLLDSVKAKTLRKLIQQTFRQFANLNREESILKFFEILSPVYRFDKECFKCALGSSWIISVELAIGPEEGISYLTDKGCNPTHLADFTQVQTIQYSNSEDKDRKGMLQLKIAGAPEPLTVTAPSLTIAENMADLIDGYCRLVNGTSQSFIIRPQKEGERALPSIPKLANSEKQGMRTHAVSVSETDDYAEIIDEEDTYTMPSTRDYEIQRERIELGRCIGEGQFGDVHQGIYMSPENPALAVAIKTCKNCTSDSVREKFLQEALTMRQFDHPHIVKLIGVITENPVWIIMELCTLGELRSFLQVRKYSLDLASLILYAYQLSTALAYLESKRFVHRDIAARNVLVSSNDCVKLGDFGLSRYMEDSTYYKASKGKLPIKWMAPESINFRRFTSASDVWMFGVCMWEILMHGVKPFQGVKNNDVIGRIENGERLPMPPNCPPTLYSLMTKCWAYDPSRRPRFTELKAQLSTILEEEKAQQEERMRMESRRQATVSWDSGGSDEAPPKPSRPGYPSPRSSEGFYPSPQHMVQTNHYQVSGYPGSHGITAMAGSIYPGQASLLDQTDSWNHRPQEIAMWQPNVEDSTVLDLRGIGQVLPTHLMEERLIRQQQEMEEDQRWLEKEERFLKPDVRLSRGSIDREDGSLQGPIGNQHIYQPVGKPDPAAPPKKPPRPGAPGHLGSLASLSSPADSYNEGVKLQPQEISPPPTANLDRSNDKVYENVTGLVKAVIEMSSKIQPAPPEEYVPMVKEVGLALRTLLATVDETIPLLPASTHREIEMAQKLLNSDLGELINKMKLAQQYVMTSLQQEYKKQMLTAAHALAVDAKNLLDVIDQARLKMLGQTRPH

Row | Compound | melting point | pIC50 (human FAK) | pIC50 (human KDR enzyme) | pIC50 (human Tie2)
1 | NC(=O)c1c[nH]c(C(N)=O)c1-c1ccc(NC(=O)Nc2cc(C(F)(F)F)ccc2F)cc1 [Example 40, 3-{4-[3-(2-Fluoro-5-trifluoromethylphenyl)ureido]phenyl}-1H-pyrrole-2,4-dicarboxamide] | 196 °C | – | – | –
2 | NC(=O)c1[nH]ccc1-c1ccc(NC(=O)Nc2cc(C(F)(F)F)ccc2F)cc1 [Example 1, 3-{4-[3-(2-Fluoro-5-trifluoromethylphenyl)ureido]phenyl}-1H-pyrrole-2-carboxamide] | – | 5.62 | 6.94 | 7.89
3 | NC(=O)c1[nH]cnc1-c1ccc(NC(=O)Nc2cc(C(F)(F)F)ccc2F)cc1 [Example 46, 5-{4-[3-(2-Fluoro-5-trifluoromethylphenyl)ureido]phenyl}-3H-imidazole-4-carboxamide] | 325 °C | – | – | –
4 | NC(=O)c1[nH]cc(NC(=O)Nc2cc(C(F)(F)F)ccc2F)c1-c1ccc(NC(=O)Nc2cc(C(F)(F)F)ccc2F)cc1 [Example 4, 4-[3-(2-Fluoro-5-trifluoromethylphenyl)ureido]-3-{4-[3-(2-fluoro-5-trifluoro-methylphenyl)ureido]phenyl}-1H-pyrrole-2-carboxamide] | – | – | 6.45 | 6.95
5 | NC(=O)c1[nH]cc(C(=O)O)c1-c1ccc(NC(=O)Nc2cc(C(F)(F)F)ccc2F)cc1 [Example 38, 5-Carbamoyl-4-{4-[3-(2-fluoro-5-trifluoromethylphenyl)ureido]phenyl}-1H-pyrrole-3-carboxylic acid] | 194 °C | – | – | –
6 | CCOC(=O)c1c[nH]c(C(N)=O)c1-c1ccc(NC(=O)Nc2cc(C(F)(F)F)ccc2F)cc1 [Example 9, Ethyl 5-carbamoyl-4-{4-[3-(2-fluoro-5-trifluoromethylphenyl)ureido]phenyl}-1H-pyrrole-3-carboxylate] | 179 °C | – | 7.64 | 8.40
7 | NC(=O)c1[nH]cc(Cl)c1-c1ccc(NC(=O)Nc2cc(C(F)(F)F)ccc2F)cc1 [Example 44, 4-Chloro-3-{4-[3-(2-fluoro-5-trifluoromethylphenyl)ureido]phenyl}-1H-pyrrole-2-carboxamide] | – | – | 7.57 | 8.15
8 | NC(=O)c1[nH]cc(NC(=O)c2ccccc2)c1-c1ccc(NC(=O)Nc2cc(C(F)(F)F)ccc2F)cc1 [Example 7, 4-Benzoylamino-3-{4-[3-(2-fluoro-5-trifluoromethylphenyl)ureido]phenyl}-1H-pyrrole-2-carboxamide] | 239.7 °C | – | – | –
9 | CC(=O)Nc1c[nH]c(C(N)=O)c1-c1ccc(NC(=O)Nc2cc(C(F)(F)F)ccc2F)cc1 [Example 5, 4-Acetylamino-3-{4-[3-(2-fluoro-5-trifluoromethylphenyl)ureido]phenyl}-1H-pyrrole-2-carboxamide] | 228.5 °C | – | – | –
10 | CN(C)CC(=O)Nc1c[nH]c(C(N)=O)c1-c1ccc(NC(=O)Nc2cc(C(F)(F)F)ccc2F)cc1 [Example 6, 4-(2-Dimethylaminoacetylamino)-3-{4-[3-(2-fluoro-5-trifluoromethylphenyl)-ureido]phenyl}-1H-pyrrole-2-carboxamide] | 178 °C | – | – | –
11 | Cl.NC(=O)c1[nH]cc(N)c1-c1ccc(NC(=O)Nc2cc(C(F)(F)F)ccc2F)cc1 | ~ 174 °C | – | – | –
